Measured values published in paper PMC8705783, “The Effect of Conjugation with Octaarginine, a Cell-Penetrating Peptide on Antifungal Activity of Imidazoacridinone Derivative” (International Journal of Molecular Sciences, 2021).
In brackets after ≈: the same amount, converted by molar mass. Where a name gives a salt, the structure may show the parent alone.

Legend:
[1] = system: Candida parapsilosis ATCC 22019; assay: microbe, parasite or virus in culture; settings: Lodderomyces parapsilosis, ATCC22019, 24 h, pH 7
[2] = system: Candida glabrata ATCC 90030; assay: microbe, parasite or virus in culture; settings: Nakaseomyces glabratus, ATCC90030, 24 h, pH 7
[3] = system: Candida albicans ATCC 10231; assay: microbe, parasite or virus in culture
Candida krusei ATCC 6258 = assay: microbe, parasite or virus in culture; settings: Pichia kudriavzevii, ATCC6258, 24 h, pH 7
reference strains = assay: Antifungal activity, summary over reference strains; format: cell-based; set-up: key to Antifungal Activity (level): (−) Means no antifungal activity; (±) low activity; (+) moderate activity; (++) high activity at the concentration mentioned; settings: for Antifungal Activity (level): Table 3; for antifungal activity: as reported in Table 1
[4] = system: Saccharomyces cerevisiae ATCC 9763; assay: microbe, parasite or virus in culture; settings: ATCC9763, 24 h, pH 7
yeast topoisomerase II = yeast topoisomerase II (Saccharomyces cerevisiae, UniProt P06786); assay: Yeast topoisomerase II relaxation assay; format: biochemical; settings: supercoiled pBR322, tested at 1-200 μM
Method: Due to the known activity of acridine and acridone derivatives as human topoisomerase inhibitors widely analysed for cancer chemotherapy, we decided to analyse the influence of Compound 1 as well as its R8 conjugate on the fungal equivalent of that enzyme. The relaxation of supercoiled plasmid DNA by yeast topoisomerase II (yTOPO II) was studied in the presence of different concentrations of both compounds.
The inhibition of yeast topoisomerase II was analysed according to the relaxation assay kit from Inspiralis (Inspiralis Limited, Norwich, UK). Briefly, 250 ng of supercoiled pBR322 DNA (Thermo Fisher Scientific, Waltham, MA, USA), 1 mM ATP (Inspiralis Limited, UK), and 1–200 μM of the analysed compound were mixed with reaction buffer (1 mM Tris-HCl (pH 7.9), 10 mM KCl, 0.5 mM MgCl2, 0.2 % (by volume) glycerol). The reaction was initiated by the addition of an enzyme, allowed to proceed at 30 °C for 30 min and terminated by addition of 40% (m/V) sucrose, 100 mM Tris-HCl pH 8, 10 mM EDTA, and 0.5 mg mL^−1 Bromophenol Blue. Two-step extraction with chloroform:isoamyl alcohol (24:1, by volume) and butanol water was performed and mixtures were analysed on 1% agarose gel in 1 × TAE buffer, 3h, 4.5 V cm^−1. Gel was stained in GelRed 3 × staining solution (Biotium, Fremont, CA, USA) for 30 min and photographed with Gel Doc XR+Gel Documentation System (Bio-Rad: Hercules, CA, USA).

human topoisomerase II = settings: cited from earlier work
Candida albicans = system: Candida albicans; set-up: method as in PMID 23563951; key to Antifungal Activity (level): (−) Means no antifungal activity; (±) low activity; (+) moderate activity; (++) high activity at the concentration mentioned; settings: cited from earlier work
Candida albicans Gu5 = assay: microbe, parasite or virus in culture
Candida albicans Gu4 = assay: microbe, parasite or virus in culture
Candida albicans F5 = assay: microbe, parasite or virus in culture
C. albicans ATCC 10231 = format: cell-based, Candida albicans; settings: 1/4 × MIC to 4 × MIC, RPMI medium
Method: Killing kinetics analysis was performed as described previously. […] After an appropriate time of incubation, 10 μL was withdrawn and spread on YPG agar plates. The number of colony-forming units (CFUs) was determined after overnight incubation of the plates at 37 °C. The killing kinetics analysis was performed with the GraphPad Prism 8 software (GraphPad Software Inc., San Diego, CA, USA).

Candida albicans B3 = assay: microbe, parasite or virus in culture
Candida albicans F2 = assay: microbe, parasite or virus in culture
Candida albicans B4 = assay: microbe, parasite or virus in culture

Chain of yeast topoisomerase II (P06786 whole entry): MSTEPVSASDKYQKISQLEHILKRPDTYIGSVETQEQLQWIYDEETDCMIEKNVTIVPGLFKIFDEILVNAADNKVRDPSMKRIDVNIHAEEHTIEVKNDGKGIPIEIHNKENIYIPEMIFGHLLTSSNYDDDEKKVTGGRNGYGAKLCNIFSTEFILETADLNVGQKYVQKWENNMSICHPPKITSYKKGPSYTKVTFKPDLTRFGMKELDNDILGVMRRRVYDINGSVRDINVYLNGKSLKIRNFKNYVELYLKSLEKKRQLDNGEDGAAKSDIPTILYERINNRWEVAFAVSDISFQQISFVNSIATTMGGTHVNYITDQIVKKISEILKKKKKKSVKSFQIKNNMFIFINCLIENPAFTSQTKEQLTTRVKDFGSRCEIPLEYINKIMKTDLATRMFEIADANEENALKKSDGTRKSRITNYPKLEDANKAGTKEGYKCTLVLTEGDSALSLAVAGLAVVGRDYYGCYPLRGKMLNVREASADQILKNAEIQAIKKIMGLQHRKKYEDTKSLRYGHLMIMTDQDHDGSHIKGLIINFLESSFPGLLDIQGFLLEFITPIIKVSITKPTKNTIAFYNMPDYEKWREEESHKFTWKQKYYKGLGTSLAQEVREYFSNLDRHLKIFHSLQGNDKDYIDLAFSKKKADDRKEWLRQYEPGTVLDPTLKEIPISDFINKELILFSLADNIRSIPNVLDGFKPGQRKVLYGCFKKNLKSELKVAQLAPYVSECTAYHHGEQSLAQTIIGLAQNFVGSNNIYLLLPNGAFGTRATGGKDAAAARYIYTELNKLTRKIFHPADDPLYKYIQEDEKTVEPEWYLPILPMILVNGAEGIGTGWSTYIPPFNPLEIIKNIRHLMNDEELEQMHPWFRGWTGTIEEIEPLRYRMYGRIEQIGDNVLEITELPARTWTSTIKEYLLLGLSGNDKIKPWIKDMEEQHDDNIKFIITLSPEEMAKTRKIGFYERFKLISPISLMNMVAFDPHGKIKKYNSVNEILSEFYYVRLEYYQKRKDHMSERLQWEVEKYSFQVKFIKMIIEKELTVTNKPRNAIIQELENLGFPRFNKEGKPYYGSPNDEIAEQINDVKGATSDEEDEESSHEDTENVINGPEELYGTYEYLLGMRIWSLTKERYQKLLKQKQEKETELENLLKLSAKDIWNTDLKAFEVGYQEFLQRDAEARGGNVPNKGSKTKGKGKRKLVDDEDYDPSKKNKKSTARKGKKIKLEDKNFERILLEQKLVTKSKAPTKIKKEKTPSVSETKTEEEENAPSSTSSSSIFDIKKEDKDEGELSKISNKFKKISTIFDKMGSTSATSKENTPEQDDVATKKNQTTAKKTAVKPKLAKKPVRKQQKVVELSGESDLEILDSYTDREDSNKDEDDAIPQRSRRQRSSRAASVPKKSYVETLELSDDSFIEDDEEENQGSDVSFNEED

Structure (SMILES)	melting point	MIC90 [1]	MIC90 [2]	MIC90 ([3]; ATCC10231, 24 h, pH 7)	MIC90 (Candida krusei ATCC 6258)	Antifungal Activity (level) (reference strains)	antifungal activity (reference strains)	MIC90 [4]	further results
NCCNc1ccc2ncn3c4ccc(O)cc4c(=O)c1c23 (as salt: hydrochloride) [Compound 1, 5-((2-Aminoethyl)amino)-8-hydroxy-6H-imidazo[4,5,1-de]acridin-6-one]	332 to 334 °C								
Cc1ccc2c(c1)c(=O)c1c(NCCCN(C)C)ccc3nnn2c31 (as salt: hydrochloride) [Compound C-1296, 5-[-(3′-Dimethylamino)propylamino]-8-methyl-6H-[1,2,3]-triazolo[4,5,l-de]acridin-6-one]	120 to 122 °C								
CN(C)CCCNc1ccc2nnn3c4ccc(O)cc4c(=O)c1c23 (as salt: hydrochloride) [Compound C-1305, 5-[-(3′-Dimethylamino)propylamino]-8-hydroxy-6H-[1,2,3]-triazolo[4,5,l-de]acridin-6-one]	228 to 230 °C								
CCNCCNc1ccc2nnn3c4ccc(O)cc4c(=O)c1c23 (as salt: hydrochloride) [Compound C-1410, 5-[2′-(Ethyl)-ethylenediamine]-8-hydroxy-6H-[1,2,3]-triazolo[4,5,l-de]acridin-6-one]	300 °C								
Cc1ccc2c(c1)c(=O)c1c(NCCCN(C)C)ccc3nnn2c31 [Compound C-1296, 5-[-(3′-Dimethylamino)propylamino]-8-methyl-6H-[1,2,3]-triazolo[4,5,l-de]acridin-6-one]		> 64 µg/mL	> 64 µg/mL	> 64 µg/mL	> 64 µg/mL	±	no antifungal activity was observed	32 µg/mL (≈ 95.4 µM)	
CN(C)CCCNc1ccc2nnn3c4ccc(O)cc4c(=O)c1c23 [Compound C-1305, 5-[-(3′-Dimethylamino)propylamino]-8-hydroxy-6H-[1,2,3]-triazolo[4,5,l-de]acridin-6-one]		> 64 µg/mL	> 64 µg/mL	> 64 µg/mL	> 64 µg/mL	−	no antifungal activity was observed	> 64 µg/mL	concentration that totally inhibited yeast topoisomerase II-mediated relaxation (yeast topoisomerase II): 50 µM; concentration that totally inhibited human topoisomerase II-mediated relaxation (human topoisomerase II): 10 µM; IC50 (human topoisomerase II; read-out: concentration that diminished the relaxation reaction by 50%): 2500 nM
CCN(CC)CCNc1ccc2ncn3c4ccc(OC)cc4c(=O)c1c23 [Compound C-1330]									Antifungal Activity (level) (Candida albicans; Table 3, activity data published previously ref 8): +; antifungal activity (Candida albicans): showed phototoxic antifungal activity
CCNCCNc1ccc2nnn3c4ccc(O)cc4c(=O)c1c23 [Compound C-1410, 5-[2′-(Ethyl)-ethylenediamine]-8-hydroxy-6H-[1,2,3]-triazolo[4,5,l-de]acridin-6-one]		> 64 µg/mL	> 64 µg/mL	> 64 µg/mL	> 64 µg/mL	−	no antifungal activity was observed	> 64 µg/mL	
OC(Cn1cncn1)(Cn1cncn1)c1ccc(F)cc1F [Fluconazole]									MIC90 (Candida albicans Gu5): > 64 µg/mL; MIC90 (Candida albicans Gu4): 4 µg/mL (≈ 13.1 µM); MIC90 (Candida albicans F5): > 64 µg/mL; killing kinetics, kind of effect (C. albicans ATCC 10231): fungistatic; MIC90 (Candida albicans B3): 1 µg/mL (≈ 3.27 µM); MIC90 ([3]; ATCC10231): 8 µg/mL (≈ 26.1 µM); MIC90 (Candida albicans F2): 8 µg/mL (≈ 26.1 µM); MIC90 (Candida albicans B4): 16 µg/mL (≈ 52.2 µM)
